The results in this text go back to ChEMBL document CHEMBL2390919, “Investigation of the role of linker moieties in bifunctional tacrine hybrids” (Bioorg Med Chem, 2013).

The target in experiment [1] is T1, Acetylcholinesterase (Electrophorus electricus, UniProt O42275).
Description: Inhibition of electric eel AChE preincubated for 30 mins prior to horseradish peroxidase, H2O2 and DETAPAC addition measured for 20 mins under ROS condition by Muraoka and Miura method
For experiment [2], the target named is T1, Acetylcholinesterase. The source holds these as a separate data set.
Description: Inhibition of electric eel AChE using acetylthiocholine as substrate preincubated for 10 mins prior to substrate addition measured every 30 seconds for 30 mins by Ellman's method
The target in experiment [3] is Acetylcholinesterase (Electrophorus electricus) (UniProt O42275). Briefly: Ratio of tacrine IC50 to compound IC50 for electric eel AChE.
For experiment [4] the target is unchanged. Briefly: Non competitive inhibition of electric eel AChE using acetylthiocholine as substrate by Lineweaver-Burk plot analysis.
The target is the same in experiment [5]. Briefly: Ratio of tacrine IC50 to compound IC50 for electric eel AChE in presence of horseradish peroxidase and H2O2 and DETAPAC.

The source made the active and inactive calls. The calls are words filed in the database; no cut-off is given here.

T1 sequence (O42275 whole entry): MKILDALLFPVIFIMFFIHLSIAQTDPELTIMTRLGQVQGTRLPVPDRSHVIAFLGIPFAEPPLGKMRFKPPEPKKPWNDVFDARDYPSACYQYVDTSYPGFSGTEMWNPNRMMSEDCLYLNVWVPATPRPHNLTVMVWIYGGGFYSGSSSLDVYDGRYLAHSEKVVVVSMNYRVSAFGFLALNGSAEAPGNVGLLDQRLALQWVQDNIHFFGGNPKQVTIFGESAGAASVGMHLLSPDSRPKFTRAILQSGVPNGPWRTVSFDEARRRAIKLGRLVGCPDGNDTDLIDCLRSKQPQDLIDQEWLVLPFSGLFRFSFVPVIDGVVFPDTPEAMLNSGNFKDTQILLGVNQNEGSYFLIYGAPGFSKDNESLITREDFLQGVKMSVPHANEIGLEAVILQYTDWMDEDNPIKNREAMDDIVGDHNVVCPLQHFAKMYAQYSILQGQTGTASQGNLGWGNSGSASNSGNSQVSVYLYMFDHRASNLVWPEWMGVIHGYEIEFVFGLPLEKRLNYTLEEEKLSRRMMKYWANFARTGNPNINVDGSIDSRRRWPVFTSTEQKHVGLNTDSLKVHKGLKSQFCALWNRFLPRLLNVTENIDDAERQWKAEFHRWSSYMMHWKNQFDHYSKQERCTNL
Acetylcholinesterase (Electrophorus electricus), sequence (O42275 24-633 limits assumed): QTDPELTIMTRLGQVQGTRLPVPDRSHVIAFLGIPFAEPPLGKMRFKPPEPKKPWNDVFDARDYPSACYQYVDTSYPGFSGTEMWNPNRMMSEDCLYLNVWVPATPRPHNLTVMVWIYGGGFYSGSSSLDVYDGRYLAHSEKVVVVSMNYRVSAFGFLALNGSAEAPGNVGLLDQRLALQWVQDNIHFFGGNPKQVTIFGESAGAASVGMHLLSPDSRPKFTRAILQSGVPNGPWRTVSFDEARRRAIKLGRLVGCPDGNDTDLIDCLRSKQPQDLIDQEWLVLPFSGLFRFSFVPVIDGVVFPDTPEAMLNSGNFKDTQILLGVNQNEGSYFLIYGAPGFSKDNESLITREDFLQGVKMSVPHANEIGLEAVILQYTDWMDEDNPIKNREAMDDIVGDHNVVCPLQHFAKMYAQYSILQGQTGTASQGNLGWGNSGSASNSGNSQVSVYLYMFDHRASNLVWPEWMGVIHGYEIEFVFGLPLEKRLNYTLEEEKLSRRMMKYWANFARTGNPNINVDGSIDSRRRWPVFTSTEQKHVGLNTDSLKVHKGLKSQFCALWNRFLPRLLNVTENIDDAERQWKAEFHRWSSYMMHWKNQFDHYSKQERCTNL

What is called IC50 is the concentration that inhibits the measured activity by half. Lower therefore signals inhibition by little substance. Take `Cc1cccc(Nc2ccccc2C(=O)NCCCCCCCCCCNc2c3c(nc4cc(Cl)ccc24)CCCC3)c1C`: the IC50 in experiment [1] is 1.85 nM; in experiment [2], 0.776 nM.

Regarding `Cc1cccc(Nc2ccccc2C(=O)NCCC(=O)NCCCCCCCNc2c3c(nc4cc(Cl)ccc24)CCCC3)c1C`, the IC50 in experiment [1] came to 10 nM; in experiment [2], 6.67 nM.

As for `NCCCCCCCNc1c2c(nc3cc(Cl)ccc13)CCCC2`, the IC50 in experiment [1] stood at 15.1 nM; in experiment [2], 5.37 nM.

Consider `Cc1cccc(Nc2ccccc2C(=O)NCCCCCC(=O)NCCCCCCNc2c3c(nc4cc(Cl)ccc24)CCCC3)c1C`, for which the values for the 50% inhibitory concentration (IC50) in experiment [1] and in experiment [2] were 7.39 nM and 2.94 nM, respectively.

For `CCCCCNc1c2c(nc3cc(Cl)ccc13)CCCC2`, the Ratio IC50 in experiment [3] is less than 5. Besides, the IC50 in experiment [1] turned out to be 43.2 nM; in experiment [2], 26.3 nM.

Consider `Cc1cccc(Nc2ccccc2C(=O)NCCCC(=O)NCCCCCCCNc2c3c(nc4cc(Cl)ccc24)CCCC3)c1C`, for which the 50% inhibitory concentration (IC50) amounted to 6.55 nM in experiment [1] and 7.91 nM in experiment [2].

For `Cc1cccc(Nc2ccccc2C(=O)NCCCCCCCNc2c3c(nc4cc(Cl)ccc24)CCCC3)c1C`, the IC50 in experiment [1] is 29.8 nM; in experiment [2] it was 1380 nM.

As to `CCCCCCCCNc1c2c(nc3cc(Cl)ccc13)CCCC2`, the Ratio IC50 in experiment [3] is less than 5. For the same compound, the IC50 stood at 7.95 nM in experiment [1] and 19.6 nM in experiment [2].

Turning to `Cc1cccc(Nc2ccccc2C(=O)NCCCCCCCCCNc2c3c(nc4cc(Cl)ccc24)CCCC3)c1C`, the results for the IC50 in experiment [1] and in experiment [2] were 6.72 nM and 6.94 nM, respectively.

Turning to `NCCCCCCCCNc1c2c(nc3cc(Cl)ccc13)CCCC2`, the Ratio IC50 in experiment [3] turned out to be 50. Besides, the half-maximal inhibitory concentration (IC50) in experiment [1] is 293 nM; in experiment [2], 1.14 nM.

As to `Cc1cccc(Nc2ccccc2C(=O)NCCCCCCCCNc2c3c(nc4cc(Cl)ccc24)CCCC3)c1C`, the values for the IC50 in experiment [1] and in experiment [2] were 1.49 nM and 0.495 nM, respectively.

For `CCCCCCCNc1c2c(nc3cc(Cl)ccc13)CCCC2`, the Ratio IC50 in experiment [3] is 3. The inhibition result in experiment [4] was “Active”. The values for the concentration for half-maximal inhibition (IC50) in experiment [1] and in experiment [2] were 2.03 nM and 16 nM, respectively.

As to `CCCCCCNc1c2c(nc3cc(Cl)ccc13)CCCC2`, the Ratio IC50 in experiment [3] is less than 5. Besides, the figures for the IC50 in experiment [1] and in experiment [2] were 26.2 nM and 65.3 nM, respectively.

Take `NCCCCCCNc1c2c(nc3cc(Cl)ccc13)CCCC2`: the inhibition result in experiment [4] was “Active”. Also, the IC50 is 7.85 nM in experiment [1] and 11.1 nM in experiment [2].

Take `NCCCCCCCCCNc1c2c(nc3cc(Cl)ccc13)CCCC2`: the results for the Ratio IC50 in experiment [5] and in experiment [3] were 30 and 50, respectively. For the same compound, the inhibition result in experiment [4] was “Active”. The IC50 in experiment [1] was determined as 1.22 nM; in experiment [2], 0.604 nM.

On to `OCCCCCNc1c2c(nc3cc(Cl)ccc13)CCCC2`, for which the IC50 in experiment [1] worked out at 1520 nM; in experiment [2], 72.5 nM.

With `Cc1cccc(Nc2ccccc2C(=O)NCCC(=O)NCCCCNc2c3c(nc4cc(Cl)ccc24)CCCC3)c1C`, the half-maximal inhibitory concentration (IC50) is 33 nM in experiment [1] and 2470 nM in experiment [2].

Regarding `NCCCCCNc1c2c(nc3cc(Cl)ccc13)CCCC2`, the results for the IC50 in experiment [1] and in experiment [2] were 938 nM and 51 nM, respectively.

`Cc1cccc(Nc2ccccc2C(=O)NCCCCCC(=O)NCCCCCCCNc2c3c(nc4cc(Cl)ccc24)CCCC3)c1C`: the half-maximal inhibitory concentration (IC50) in experiment [1] was determined as 13.4 nM; in experiment [2], 11.1 nM.

Regarding `NCCCCCCCCCCNc1c2c(nc3cc(Cl)ccc13)CCCC2`, the results for the Ratio IC50 in experiment [5] and in experiment [3] were 30 and 50, respectively. The IC50 in experiment [1] is 2.18 nM; in experiment [2], 0.932 nM.

For the compound `Cc1cccc(Nc2ccccc2C(=O)NCCC(=O)NCCCCCCNc2c3c(nc4cc(Cl)ccc24)CCCC3)c1C`, the 50% inhibitory concentration (IC50) in experiment [1] was determined as 2.96 nM; in experiment [2], 1.14 nM.

For the compound `Cc1cccc(Nc2ccccc2C(=O)NCCCCCCCCCCCCNc2c3c(nc4cc(Cl)ccc24)CCCC3)c1C`, the IC50 in experiment [1] turned out to be 16.2 nM; in experiment [2] it was 2360 nM.

For the compound `Cc1cccc(Nc2ccccc2C(=O)NCCCC(=O)NCCCCCCNc2c3c(nc4cc(Cl)ccc24)CCCC3)c1C`, the IC50 in experiment [1] was 15.6 nM; in experiment [2] it was 41.7 nM.

On to `OCCCCCCNc1c2c(nc3cc(Cl)ccc13)CCCC2`, for which the inhibition result in experiment [4] was “Active”. In addition, the IC50 in experiment [1] amounted to 2.47 nM; in experiment [2], 42.4 nM.

With `Cc1cccc(Nc2ccccc2C(=O)NCCCCCC(=O)NCCCCNc2c3c(nc4cc(Cl)ccc24)CCCC3)c1C`, the IC50 came to 0.299 nM in experiment [1] and 37.4 nM in experiment [2].

With `CCCCCCCCCNc1c2c(nc3cc(Cl)ccc13)CCCC2`, the Ratio IC50 in experiment [3] turned out to be 20. The half-inhibitory concentration (IC50) in experiment [1] came out at 16.9 nM; in experiment [2] it was 2.27 nM.

For the compound `NCCCCCCCCCCCCNc1c2c(nc3cc(Cl)ccc13)CCCC2`, the Ratio IC50 came to 30 in experiment [5] and 50 in experiment [3]. The figures for the IC50 in experiment [1] and in experiment [2] were 1.44 nM and 0.648 nM, respectively.

`Cc1cccc(Nc2ccccc2C(=O)NCCCC(=O)NCCCCNc2c3c(nc4cc(Cl)ccc24)CCCC3)c1C`: the figures for the IC50 in experiment [1] and in experiment [2] were 12.4 nM and 13.6 nM, respectively.

As for `CCCCCCCCCCNc1c2c(nc3cc(Cl)ccc13)CCCC2`, the Ratio IC50 in experiment [3] is 10. In addition, the values for the IC50 in experiment [1] and in experiment [2] were 252 nM and 5.17 nM, respectively.

`Cc1cccc(Nc2ccccc2C(=O)NCCCCCCNc2c3c(nc4cc(Cl)ccc24)CCCC3)c1C`: the concentration for half-maximal inhibition (IC50) in experiment [1] turned out to be 1.02 nM; in experiment [2], 7230 nM.

With `NCCCCNc1c2c(nc3cc(Cl)ccc13)CCCC2`, the figures for the IC50 in experiment [1] and in experiment [2] were 65.8 nM and 38 nM, respectively.
